“Also recorded” adds a separate entry of the source.
How the values were obtained:
Format in all cases: physicochemical
[1] = tested on: bevacizumab; experiment: Stability of dialyzed, pre-stressed bevacizumab alone and with AMP, percentage of monomers by AFFF-MALS
Protocol: A 50 mM phosphate buffer pH 7.0 was used. The buffer choice was based on a pH range and buffer capacity that is physiologically tolerated and that is acceptable for the stability of antibodies. […] Samples were analyzed directly after preparation (t0) and after 7, 14 and 28 days. The aggregation state of the antibodies was measured by multi-angle light scattering (MALS) after separation by asymmetrical flow field-flow fractionation (AFFF). […] Data were collected and analysed with the Astra software (Wyatt Technology Europe GmbH, Dernbach, Germany). The aggregation state was expressed as the percentage of monomers versus time.

[2] = tested on: Avastin®; experiment: Effect of AMP on the unmodified commercial bevacizumab formulation (Avastin®), stability by AFFF-MALS; conditions: 40° C., 28 days, p<0.05
Protocol: All samples were stored at 40° C. during 28 days. Samples were analyzed directly after preparation (t0) and after 7, 14 and 28 days. The aggregation state of the antibodies was measured by multi-angle light scattering (MALS) after separation by asymmetrical flow field-flow fractionation (AFFF). […] Data were collected and analysed with the Astra software (Wyatt Technology Europe GmbH, Dernbach, Germany). The aggregation state was expressed as the percentage of monomers versus time.
All samples are stored at a temperature of 40° C. for 28 days and the stability is measured as described in Example 3 and compared to a sample of Avastin® alone stored under the same conditions.

[3] = tested on: Avastin®; experiment: Stability of pre-stressed Avastin® with ATP, GMP or sucrose phosphate, by AFFF-MALS; conditions: for stabilization of Avastin® across molar ratios: Avastin®:compound 1:1, 1:10 and 1:100, pre-stressed, PBS pH 7.0, 40° C., up to 28 days; for Short-term effects on the antibody, compared among ATP, GMP and sucrose phosphate: short term after addition
Protocol: All samples were stored at 40° C. during 28 days. […] The aggregation state of the antibodies was measured by multi-angle light scattering (MALS) after separation by asymmetrical flow field-flow fractionation (AFFF). […] Data were collected and analysed with the Astra software (Wyatt Technology Europe GmbH, Dernbach, Germany). The aggregation state was expressed as the percentage of monomers versus time.
After pre-stressing, Avastin® samples were combined with either ATP, GMP or sucrose phosphate at three Avastin®: compound of formula (I) molar ratios (1:1, 1:10 and 1:100). All samples are stored at a temperature of 40° C. for 28 days and stability is measured as described in Example 3 and compared to a sample of Avastin® alone stored under the same conditions. For GMP, a dilution of GMP was made in PBS pH 7.0 and pH was adjusted to 7.0 before the combination with Avastin® to prevent the risk of higher order aggregates caused by the addition of NaOH directly to the antibody formulation.

[4] = molar ratio 1:1, t1 (1 day at 40° C.)
[5] = molar ratio 1:10, t1 (1 day at 40° C.)
[6] = molar ratio 1:100, t1 (1 day at 40° C.)

Compound	percentage of monomers ([1]; formulations of bevacizumab with AMP (1:153 by context), 14 days at 40° C., pH 7.0, n=3)	percentage of monomers ([1]; molar ratio bevacizumab:AMP 1:1.53, 14 days at 40° C., pH 7.0)	percentage of monomers ([1]; molar ratio bevacizumab:AMP 1:1.53, 28 days at 40° C., pH 7.0, n=3)	percentage of monomers ([1]; molar ratio bevacizumab:AMP 1:15.3, 14 days at 40° C., pH 7.0)	percentage of monomers ([1]; molar ratio bevacizumab:AMP 1:15.3, 28 days at 40° C., pH 7.0, n=3)	percentage of monomers ([1]; molar ratio bevacizumab:AMP 1:153, 28 days at 40° C., pH 7, n=3)	stabilization of the antibody (increase in monomers) versus Avastin® alone ([2]; Avastin®:AMP 1:10)	stabilization of the antibody (increase in monomers) versus Avastin® alone ([2]; Avastin®:AMP 1:100)	stabilization of Avastin® across molar ratios [3]	aggregation breaker strength in experiments ([3]; compared with AMP)	stabilizing effect versus Avastin® alone [3, 4]	stabilizing effect versus Avastin® alone [3, 5]	stabilizing effect versus Avastin® alone [3, 6]	stabilizing effect versus Avastin® alone ([3]; molar ratio 1:100, t28 (28 days at 40° C.))	Short-term effects on the antibody, compared among ATP, GMP and sucrose phosphate [3]	stabilizing properties, compared among ATP, GMP and sucrose phosphate ([3]; after 28 days of storage at 40° C.)
Nc1ncnc2c1ncn2[C@@H]1O[C@H](COP(=O)(O)O)[C@@H](O)[C@H]1O [AMP, adenosine 5′-monophosphate]	higher than 94%	higher than 80%	higher than 76%	higher than 80%	higher than 76%	around 90%	significant stabilization is observed at t1, t14 and t28	such a stabilization is observed only at longer incubation times (t14 and t28)	–	–	–	–	–	–	–	–
Nc1ncnc2c1ncn2[C@@H]1O[C@H](COP(=O)(O)OP(=O)(O)OP(=O)(O)O)[C@@H](O)[C@H]1O [ATP, adenosine 5′-triphosphate]	–	–	–	–	–	–	–	–	concentration dependent stabilization	less strong breaker than AMP	stabilizing effect is observed	stabilizing effect is observed	stabilizing effect is observed	significant stabilizing effect	most pronounced	–
Nc1nc2c(ncn2[C@@H]2O[C@H](COP(=O)(O)O)[C@@H](O)[C@H]2O)c(=O)[nH]1 [GMP, guanosine 5′-monophosphate]	–	–	–	–	–	–	–	–	concentration dependent stabilization	–	destabilizing	destabilizing	shows an ability to stabilize the antibody	–	–	most distinct stabilizing properties
sucrose phosphate	–	–	–	–	–	–	–	–	concentration-dependent stabilization; also recorded: concentration-dependent stabilizing effect continues up to 28 days	–	stabilizing effect is observed	stabilizing effect is observed	stabilizing effect is observed	–	most pronounced	–
